Test results taken from US20250214969A1, “PROTEIN DEGRADERS AND USES THEREOF” (Kymera Therapeutics, Inc., priority 2022, published 2025).

Assays:
[1] = target: T1, truncated His-MBP-Tev-KLHDC2 (residues 1-363) (Homo sapiens, UniProt Q9Y2U9); assay: KLHDC2 HTRF binding assay; conditions: 1 nM KLHDC2 (residues 1-363), fluorescein-labeled diglycine peptide probe
T1 construct: truncated His -MBP-Tev-KLHDC2 (residues 1-363) purified from E. coli; made in house; host or cells: E. coli
T1 sequence (Q9Y2U9 1-363): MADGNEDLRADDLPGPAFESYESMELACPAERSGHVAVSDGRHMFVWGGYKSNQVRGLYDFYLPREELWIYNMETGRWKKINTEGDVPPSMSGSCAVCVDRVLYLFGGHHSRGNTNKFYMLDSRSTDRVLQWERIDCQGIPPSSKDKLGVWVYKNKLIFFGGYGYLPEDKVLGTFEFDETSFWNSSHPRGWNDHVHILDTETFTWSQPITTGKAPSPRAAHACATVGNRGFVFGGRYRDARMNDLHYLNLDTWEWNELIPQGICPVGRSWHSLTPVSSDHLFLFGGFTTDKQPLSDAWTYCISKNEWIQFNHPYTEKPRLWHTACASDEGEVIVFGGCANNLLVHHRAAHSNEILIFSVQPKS

[2] = target: T1, truncated His-MBP-Tev-KLHDC2 (residues 1-363); assay: KLHDC2 FP competition binding assay; conditions: 15 nM KLHDC2 (residues 1-363), 10 nM fluorescein-labeled diglycine peptide probe, read-out: KLHDC2 binding Human FP: average external IC50

Compound | IC50 [1] [µM] | IC50 [2] [µM]
CS(=O)(=O)Nc1cccc(CC(=O)O)c1 [I-227] | > 5 | > 5
O=C(O)Cn1cc(NC(=O)[C@@H]2Cc3ccccc3N(c3cccnc3)C2)ccc1=O [I-11] | 0.5 to 5 | 0.5 to 5
O=C(O)Cn1cc(-c2ccc3cn[nH]c3c2)ccc1=O [I-386] | > 5 | > 5
CCc1ccc(C)c(-c2ccc(=O)n(CC(=O)O)c2)c1 [I-340] | > 5 | > 5
O=C(O)Cn1cc(-c2cc(F)cc(F)c2)ccc1=O [I-371] | > 5 | > 5
N#Cc1cccc(OCC(=O)Nc2ccc(=O)n(CC(=O)O)c2)c1 [I-258] | > 5 | > 5
O=C(O)Cn1cc(NC(=O)CC2Cc3ccc(Cl)cc3C2=O)ccc1=O (centres unmarked) [I-235] | > 5 | > 5
O=C(O)Cn1cc(NC(=O)COc2ccccc2F)ccc1=O [I-279] | > 5 | > 5
CC1CCN(c2cccnc2)CC1C(=O)Nc1ccc(=O)n(CC(=O)O)c1 (centres unmarked) [I-61] | 0.05 to 0.5 | 0.5 to 5
COc1cc(-c2ccc(F)c(CCCCCCCCCNC(=O)C[C@@H]3N=C(c4ccc(Cl)cc4)c4c(sc(C)c4C)-n4c(C)nnc43)c2)ccc1C(=O)Nc1ccc(=O)n(CC(=O)O)c1 [I-469] | 0.5 to 5 | 0.05 to 0.5
O=C(O)Cn1cc(-c2cccc(CCc3ccccc3)c2)ccc1=O [I-295] | > 5 | > 5
O=C(O)Cn1cc(NC(=O)[C@H]2CC[C@H](NC(=O)C3CCCC3)CC2)ccc1=O [I-183] | > 5 | > 5
Cn1cc(N2CC(C(=O)O)CC2=O)cn1 (centres unmarked) [I-226] | > 5 | > 5
O=C(O)Cn1cc(NC(=O)[C@@H]2CCN(c3cccnc3)C2)ccc1=O [I-49] | > 5 | > 5
Cc1cc(=O)n(CC(=O)O)cc1NC(=O)[C@H]1CCCN(c2cccnc2)C1 [I-84] | 0.05 to 0.5 | 0.5 to 5
O=C(O)C1CC(=O)N(Cc2cccnc2)C1 (centres unmarked) [I-220] | > 5 | > 5
O=C(O)Cn1cc(NC(=O)c2cccc(-c3cccc(Cl)c3)c2)ccc1=O [I-293] | 0.5 to 5 | > 5

Compound | IC50 [1] [µM] | IC50 [2] [µM]
O=C(O)Cn1cc(NC(=O)Cc2ccccc2)ccc1=O [I-377] | > 5 | > 5
COc1cccc2c(N3CCC[C@H](C(=O)Nc4ccc(Cl)c(CC(=O)O)c4)C3)cncc12 [I-5] | 0.05 to 0.5 | 0.05 to 0.5
O=C(O)Cn1ccccc1=O [I-428] | > 5 | > 5
COc1cc(-c2ccccn2)ccc1C(=O)Nc1ccc(=O)n(CC(=O)O)c1 [I-149] | 0.5 to 5 | 0.5 to 5
O=C(O)Cn1cc(NC(=O)c2cccc(-c3cncc4ccccc34)c2)ccc1=O [I-131] | < 0.05 | 0.5 to 5
O=C(O)Cn1cc(NC(=O)COc2ccccn2)ccc1=O [I-264] | > 5 | > 5
O=C(O)Cn1cc(NC(=O)c2cccc(-c3ccccc3)n2)ccc1=O [I-274] | > 5 | > 5
O=C(O)Cn1cc(NC(=O)[C@H]2CN(c3cccnc3)Cc3ccccc32)ccc1=O [I-32] | 0.5 to 5 | > 5
O=C(O)Cn1cc(NC(=O)c2cccc(-c3nc4ccccc4s3)c2)ccc1=O [I-138] | 0.05 to 0.5 | 0.5 to 5
Cc1c(Cl)cccc1OCC(=O)Nc1ccc(=O)n(CC(=O)O)c1 [I-309] | 0.5 to 5 | > 5
Cc1cccc(-c2cccc(C(=O)Nc3ccc(=O)n(CC(=O)O)c3)c2)c1 [I-294] | > 5 | > 5
O=C(O)Cc1cc(NC(=O)[C@H]2CCCN(c3cccnc3)C2)ccc1F [I-33] | 0.05 to 0.5 | 0.5 to 5
CCc1cncc(N2CCC[C@H](C(=O)Nc3ccc(F)c(CC(=O)O)c3)C2)c1 [I-23] | < 0.05 | 0.05 to 0.5
CS(=O)(=O)c1ccccc1-c1ccc(=O)n(CC(=O)O)c1 [I-394] | > 5 | > 5
O=C(O)Cn1cc(-c2cncc(OCc3ccccc3)c2)ccc1=O [I-301] | > 5 | > 5
O=C(O)Cn1cc(NC(=O)[C@H]2CCCN(c3cccnc3)C2)c(C2CC2)cc1=O [I-57] | > 5 | > 5
COc1cc(-c2nccs2)ccc1C(=O)Nc1ccc(=O)n(CC(=O)O)c1 [I-148] | 0.5 to 5 | 0.5 to 5
